Where two headings read alike, the source gives them in different places.
Target: human GluN1/GluN2B (Homo sapiens (Human), UniProt Q05586+Q13224)
Experiment: Two electrode voltage-clamp recordings from Xenopus laevis oocytes, GluN2B potency and pH dependence
Assay type: cell-based
Details: for pH Boost: ratio of IC50 at pH 7.6 to IC50 at pH 6.9
Procedure: Two Electrode Voltage-Clamp Recordings from Xenopus laevis Oocytes
Stage V-VI Xenopus laevis unfertilized oocytes were purchased from Ecocyte (Austin, Texas) and injected with 5 ng of GluN1 and 10 ng of GluN2B cRNAs. The cDNAs for human GluN1 and GluN2B, encoding NCBI reference sequences NM_007327.3 and NM_000834.3, respectively, were linearized and cRNAs made as previously described (Traynelis et al., J Neurosci, 1998, 18(16):6163-75). After injection, the oocytes were incubated in Barth's culture solution (88 mM NaCl, 1 mM KCl, 2.4 mM NaHCO3, 10 mM HEPES, 0.82 mM MgSO4, 0.33 mM Ca(NO3)2, 0.41 mM CaCl2), 10 U/mL PenStrep, and 0.1 mg/mL gentamycin, pH 7.4) at 18° C. Two electrode voltage-clamp (TEVC) recordings were made at 22-23° C., 2-7 days after the injection, using Warner OC725C amplifiers (VHOLD=−40 mV). Briefly, the oocytes were perfused in a recording solution (90 mM NaCl, 1 mM KCl, 10 mM HEPES, 0.01 mM EDTA, and 0.5 mM BaCl2) adjusted to either pH 7.6 or 6.9 by addition of NaOH or HCl, respectively (pH 6.9 solutions were prepared by addition of HCl to pH 7.6 solutions to maintain an equal concentration of Na^+ ions in both solutions). Concentration-response curves of the compounds were obtained by application of increasing concentrations of each individual compound until steady state conditions were obtained, in the presence of saturating agonist concentrations (i.e., 100 μM glutamate and 30 μM glycine). In general, oocyte recordings were made from 4-10 oocytes per experiment (i.e., oocyte injection cycle) from ≥two experiments. The concentration-response relationship for each oocyte was fit by equation (1),
Percent Response=(100−minimum)/(1+([concentration]/IC50)^nH)+minimum (1)
where minimum is the residual response in saturating concentration of each individual compound (constrained to be ≥0), and IC50 is the concentration of compound that causes half-maximal inhibition, and nH is the Hill slope.

[1] = pH 6.9, read-out: IC50 (μM) pH 6.9
[2] = pH 7.6, read-out: IC50 (μM) pH 7.6

Sequence of human GluN1/GluN2B (Q13224 27-1484, other chains not shown): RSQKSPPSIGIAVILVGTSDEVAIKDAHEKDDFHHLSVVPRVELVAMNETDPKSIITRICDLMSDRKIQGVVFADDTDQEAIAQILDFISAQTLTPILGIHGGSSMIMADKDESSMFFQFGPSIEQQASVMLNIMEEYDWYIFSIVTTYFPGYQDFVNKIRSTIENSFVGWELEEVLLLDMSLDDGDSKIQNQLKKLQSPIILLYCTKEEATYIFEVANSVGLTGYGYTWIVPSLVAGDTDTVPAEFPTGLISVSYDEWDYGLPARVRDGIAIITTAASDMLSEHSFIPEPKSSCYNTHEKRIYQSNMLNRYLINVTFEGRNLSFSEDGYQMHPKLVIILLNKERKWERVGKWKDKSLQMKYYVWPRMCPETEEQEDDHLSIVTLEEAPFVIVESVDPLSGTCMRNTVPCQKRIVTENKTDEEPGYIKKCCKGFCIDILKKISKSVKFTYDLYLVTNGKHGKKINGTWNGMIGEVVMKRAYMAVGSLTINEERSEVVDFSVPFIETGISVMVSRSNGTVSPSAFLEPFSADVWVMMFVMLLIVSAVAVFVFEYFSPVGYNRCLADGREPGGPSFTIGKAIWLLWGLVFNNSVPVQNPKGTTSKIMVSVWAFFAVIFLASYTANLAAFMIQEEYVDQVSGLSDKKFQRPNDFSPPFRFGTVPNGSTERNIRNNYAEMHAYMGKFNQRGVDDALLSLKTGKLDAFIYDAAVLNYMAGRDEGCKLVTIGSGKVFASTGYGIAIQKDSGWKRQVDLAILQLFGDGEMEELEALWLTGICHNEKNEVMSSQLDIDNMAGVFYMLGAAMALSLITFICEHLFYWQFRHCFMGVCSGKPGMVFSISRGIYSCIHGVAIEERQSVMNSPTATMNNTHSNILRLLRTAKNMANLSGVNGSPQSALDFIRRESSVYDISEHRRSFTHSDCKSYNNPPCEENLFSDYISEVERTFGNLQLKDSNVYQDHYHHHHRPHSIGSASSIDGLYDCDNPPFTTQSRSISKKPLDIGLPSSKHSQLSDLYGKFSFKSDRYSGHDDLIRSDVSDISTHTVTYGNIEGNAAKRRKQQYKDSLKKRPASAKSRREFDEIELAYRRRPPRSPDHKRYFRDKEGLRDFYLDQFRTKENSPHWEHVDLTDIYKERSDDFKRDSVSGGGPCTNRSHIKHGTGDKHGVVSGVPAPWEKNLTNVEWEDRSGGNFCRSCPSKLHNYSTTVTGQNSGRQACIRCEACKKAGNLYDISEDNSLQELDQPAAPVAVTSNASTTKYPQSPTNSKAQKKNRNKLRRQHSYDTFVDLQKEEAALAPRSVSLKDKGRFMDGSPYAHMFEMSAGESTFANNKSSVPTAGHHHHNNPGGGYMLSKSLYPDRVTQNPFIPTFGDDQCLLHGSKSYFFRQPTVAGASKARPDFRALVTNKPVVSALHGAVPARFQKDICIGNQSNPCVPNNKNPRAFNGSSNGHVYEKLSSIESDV

SMILES	IC50 [1] [µM]	IC50 [2] [µM]	pH Boost
CS(=O)(=O)Nc1ccc(OC[C@@H](O)CN2CCN(c3ccc(F)c(F)c3)CC2)cc1 [Compound 93-108]	0.031	0.558	18.0
Oc1ccc(OC[C@@H](O)CN2CCN(c3ccc(F)c(F)c3)CC2)cc1 [Compound 10030]	0.087	0.978	11.2
Oc1ccc(OC[C@@H](O)CN2CCN(c3ccccc3)CC2)cc1 [Compound 10039]	0.217	0.476	2.2
Cc1ccc(N2CCN(C[C@H](O)COc3ccc(O)cc3)CC2)cc1 [Compound 10040]	0.074	0.26	3.5
Oc1ccc(OC[C@H](O)CN2CCN(c3ccc(F)c(F)c3)CC2)cc1 [Compound 10052]	0.05	0.272	5.4
NC(=O)Nc1ccc(OC[C@@H](O)CN2CCN(c3ccc(Cl)cc3)CC2)cc1 [Compound 10075]	0.046	0.452	9.8
CC(C)c1ccc(N2CCN(C[C@H](O)COc3ccc(O)cc3)CC2)cc1 [Compound 10082]	0.356	1.37	3.8
NC(=O)Nc1ccc(OC[C@@H](O)CN2CCN(c3ccc(Cl)c(Cl)c3)CC2)cc1 [Compound 10131]	0.103	0.947	9.2
O=C1Cc2cc(OC[C@@H](O)CN3CCN(c4ccc(Cl)cc4)CC3)ccc2N1 [Compound 10146]	0.029	0.37	12.8
NC(=O)Nc1ccc(OC[C@H](O)CN2CCN(c3ccc(Cl)cc3)CC2)cc1 [Compound 10165]	0.019	0.06	3.2
NC(=O)Nc1ccc(OC[C@H](O)CN2CCN(c3ccc(Cl)c(Cl)c3)CC2)cc1 [Compound 10166]	0.03	0.132	4.4
CCc1ccc(N2CCN(C[C@H](O)COc3ccc(O)cc3)CC2)cc1 [Compound 10171]	0.046	0.316	6.9
CCc1ccc(N2CCN(C[C@H](O)COc3ccc(NC(N)=O)cc3)CC2)cc1 [Compound 10189]	0.094	1	10.6
NC(=O)Nc1ccc(OC[C@@H](O)CN2CCN(c3ccc(F)cc3)CC2)cc1 [Compound 10214]	0.221	2.18	9.9
CCCc1ccc(N2CCN(C[C@H](O)COc3ccc(NC(N)=O)cc3)CC2)cc1 [Compound 10215]	0.13	1.3	10.0
CCc1ccc(N2CCN(C[C@@H](O)COc3ccc(NC(N)=O)cc3)CC2)cc1 [Compound 10222]	0.052	0.183	3.5
